Experimental data from patent US9695155B2, “Herbicidal substituted pyrimidinyloxy benzene compounds” (E. I. DU PONT DE NEMOURS AND COMPANY, priority 2013, dated 2017).

Assays:
Assay in all cases: Test F preemergence
Conditions in all cases: 21 days, scale 0 to 100
[1] = tested on: nutsedge, purple; format: in vivo, Cyperus rotundus
Text: (§1) Seeds of plant species selected from bermudagrass (Cynodon dactylon), surinam grass (Brachiaria decumbens), large (Lg) crabgrass (Digitaria sanguinalis), crabgrass, naked (naked crabgrass, Digitaria nuda), foxtail, green (green foxtail, Setaria viridis), johnsongrass (Sorghum halepense), kochia (Kochia scoparia), morningglory (pitted morningglory, Ipomoea lacunosa), nutsedge, purple (purple nutsedge, Cyperus rotundus), ragweed (common ragweed, Ambrosia elatior), mustard, black (black mustard, Brassica nigra), guineagrass (Panicum maximum), dallisgrass (Paspalum dilatatum), barnyardgrass (Echinochloa crus-galli), sandbur (southern sandbur, Cenchrus echinatus), sowthistle (common sowthistle, Sonchus oleraceous), Italian ryegrass (Lolium multiflorum), signalgrass (broadleaf signalgrass, Brachiaria platyphylla), dayflower (Virginia (VA) dayflower, Commelina virginica), bluegrass (annual bluegrass, Poa annua), quackgrass (Elytrigia repens), mallow (common mallow, Malva sylvestris), buckwheat, wild (wild buckwheat, Polygonum convolvulus), leafy spurge (Euphorbia esula), chickweed (common chickweed, Stellaria media), wild poinsettia (Euphorbia heterophylla), and pigweed (Amaranthus retroflexus) were planted into a blend of loam soil and sand and treated preemergence with test chemicals formulated in a non-phytotoxic solvent mixture which included a surfactant.
(§2) Treated plants and controls were maintained in a greenhouse for 21 days, after which time all species were compared to controls and visually evaluated. Plant response ratings, summarized in Table F, are based on a scale of 0 to 100 where 0 is no effect and 100 is complete control. A dash (-) response means no test result.

[2] = tested on: wild poinsettia; format: in vivo, Euphorbia heterophylla
Text: as §1, §2

[3] = tested on: Italian ryegrass; format: in vivo, Lolium multiflorum
Text: as §1, §2

[4] = tested on: barnyardgrass; format: in vivo, Echinochloa crus-galli
Text: as §1, §2

Compound	Plant response rating, Nutsedge, Purple ([1]; 16 g ai/ha)	Plant response rating, Nutsedge, Purple ([1]; 31 g ai/ha)	Plant response rating, Nutsedge, Purple ([1]; 62 g ai/ha)	Plant response rating, Nutsedge, Purple ([1]; 125 g ai/ha)	Plant response rating, Nutsedge, Purple ([1]; 250 g ai/ha)	Plant response rating, Poinsettia, Wild ([2]; 16 g ai/ha)	Plant response rating, Poinsettia, Wild ([2]; 31 g ai/ha)	Plant response rating, Poinsettia, Wild ([2]; 62 g ai/ha)	Plant response rating, Poinsettia, Wild ([2]; 125 g ai/ha)	Plant response rating, Poinsettia, Wild ([2]; 250 g ai/ha)	Plant response rating, Ryegrass, Italian ([3]; 16 g ai/ha)	Plant response rating, Ryegrass, Italian ([3]; 31 g ai/ha)	Plant response rating, Ryegrass, Italian ([3]; 62 g ai/ha)	Plant response rating, Ryegrass, Italian ([3]; 125 g ai/ha)	Plant response rating, Ryegrass, Italian ([3]; 250 g ai/ha)	Plant response rating, Barnyardgrass ([4]; 16 g ai/ha)	Plant response rating, Barnyardgrass ([4]; 31 g ai/ha)	Plant response rating, Barnyardgrass ([4]; 62 g ai/ha)	Plant response rating, Barnyardgrass ([4]; 125 g ai/ha)	Plant response rating, Barnyardgrass ([4]; 250 g ai/ha)
N#Cc1cccc(Oc2ncc(F)cn2)c1-n1cc(C(F)(F)F)cn1 [Compound 79, 3-[(5-fluoro-2-pyrimidinyl)oxy]-2-[4-(trifluoromethyl)-1H-pyrazol-1-yl]benzonitrile]	0	10	70	70	85	50	85	98	100	100	30	75	98	100	100	75	100	100	100	100
N#Cc1cccc(Oc2ncc(Cl)cn2)c1-n1cc(OC(F)F)cn1 [Compound 97]	15	35	30	75	90	10	20	75	98	98	0	35	70	85	100	0	90	95	100	100
